Test results: US9938261B2, “Heterocyclic compounds and methods of use thereof” (AMBIT BIOSCIENCES CORPORATION, priority 2011, dated 2018)

Assays:
KIT = molecular target: T1, KIT (Homo sapiens, UniProt P10721); test: Competition binding assay, KIT Kd; conditions: competition binding
T1 construct: made in house
Summary of the method: (§1)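 Compound displacement of kinase from bead-immobilized ligand is measured by qPCR after 1 h equilibration at room temperature. Kinases are T7 phage fusions or DNA-tagged HEK-293 products.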

PDGFRβ = molecular target: T2, PDGFRβ (Homo sapiens, UniProt P09619); test: Competition binding assay, PDGFRβ Kd; conditions: competition binding
T2 construct: made in house
Summary of the method: as §1

[1] = molecular target: kinase panel containing either 386 or 392 distinct kinases; test: Kinase selectivity score S10 from competition binding panel; conditions: 10 μM, panel of 386 or 392 distinct kinases
Summary of the method: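 Compounds at 10 μM competed against immobilised affinity ligands for T7 phage-fused or HEK-293-expressed DNA-tagged kinases, 1 h at room temperature; bound kinase eluted and quantified by qPCR. S10 = fraction of distinct non-mutant kinases with percent of DMSO control below 10.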

CSF1R [2] = molecular target: T3, CSF1R (Homo sapiens, UniProt P07333); test: Competition binding assay, CSF1R Kd; design: made in house; conditions: competition binding
Summary of the method: as §1

CSF1R [3] = molecular target: T3, CSF1R; test: HEK293 CSF1R phosphorylation MSD assay; type: cell-based; design: expressed in transfected cells; host or cells: HEK293; conditions: HEK293 cells, M-CSF stimulated CSF1R phosphorylation, MSD; read-out: HEK293 pCSF1R M-CSF MSD:IC50
Summary of the method: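 HEK293 cells expressing CSF1R-FKBP were pretreated 2 h at 37° C with 9 half-log concentrations of compound (0.5% DMSO final), then stimulated 5 min with 50 ng/mL human M-CSF. Lysates captured on biotin-FK506 plates; phosphotyrosine detected by MSD electrochemiluminescence. IC50 versus DMSO, averaged from duplicate plates.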

T2 sequence (P09619 33-1106): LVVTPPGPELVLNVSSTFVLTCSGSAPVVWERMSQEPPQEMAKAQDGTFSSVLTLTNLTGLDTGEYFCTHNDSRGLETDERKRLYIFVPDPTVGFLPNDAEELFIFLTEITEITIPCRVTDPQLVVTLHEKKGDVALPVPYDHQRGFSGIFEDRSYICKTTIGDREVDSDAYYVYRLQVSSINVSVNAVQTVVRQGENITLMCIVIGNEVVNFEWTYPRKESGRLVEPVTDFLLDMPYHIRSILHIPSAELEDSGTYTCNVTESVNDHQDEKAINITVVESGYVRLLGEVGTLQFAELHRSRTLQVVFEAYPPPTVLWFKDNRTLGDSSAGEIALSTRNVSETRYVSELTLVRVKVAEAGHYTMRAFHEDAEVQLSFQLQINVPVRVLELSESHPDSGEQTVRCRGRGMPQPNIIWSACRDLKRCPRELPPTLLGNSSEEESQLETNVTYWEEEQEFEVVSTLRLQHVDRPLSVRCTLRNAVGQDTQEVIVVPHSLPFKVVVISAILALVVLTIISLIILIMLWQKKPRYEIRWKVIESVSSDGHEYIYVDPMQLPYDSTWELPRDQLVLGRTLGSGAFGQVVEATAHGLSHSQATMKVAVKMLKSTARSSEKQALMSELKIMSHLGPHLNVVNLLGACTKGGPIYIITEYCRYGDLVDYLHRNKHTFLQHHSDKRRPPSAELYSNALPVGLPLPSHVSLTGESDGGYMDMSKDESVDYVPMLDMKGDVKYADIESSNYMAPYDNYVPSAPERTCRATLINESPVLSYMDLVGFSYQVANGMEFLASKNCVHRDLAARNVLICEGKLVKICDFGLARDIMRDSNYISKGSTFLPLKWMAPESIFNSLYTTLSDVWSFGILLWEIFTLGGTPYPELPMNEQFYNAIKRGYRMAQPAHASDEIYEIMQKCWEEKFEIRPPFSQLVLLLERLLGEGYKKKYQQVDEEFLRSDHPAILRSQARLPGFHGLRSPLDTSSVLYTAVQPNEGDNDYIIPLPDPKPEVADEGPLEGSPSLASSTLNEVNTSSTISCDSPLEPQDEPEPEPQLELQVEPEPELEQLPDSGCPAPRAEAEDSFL
T3 sequence (P07333 20-972): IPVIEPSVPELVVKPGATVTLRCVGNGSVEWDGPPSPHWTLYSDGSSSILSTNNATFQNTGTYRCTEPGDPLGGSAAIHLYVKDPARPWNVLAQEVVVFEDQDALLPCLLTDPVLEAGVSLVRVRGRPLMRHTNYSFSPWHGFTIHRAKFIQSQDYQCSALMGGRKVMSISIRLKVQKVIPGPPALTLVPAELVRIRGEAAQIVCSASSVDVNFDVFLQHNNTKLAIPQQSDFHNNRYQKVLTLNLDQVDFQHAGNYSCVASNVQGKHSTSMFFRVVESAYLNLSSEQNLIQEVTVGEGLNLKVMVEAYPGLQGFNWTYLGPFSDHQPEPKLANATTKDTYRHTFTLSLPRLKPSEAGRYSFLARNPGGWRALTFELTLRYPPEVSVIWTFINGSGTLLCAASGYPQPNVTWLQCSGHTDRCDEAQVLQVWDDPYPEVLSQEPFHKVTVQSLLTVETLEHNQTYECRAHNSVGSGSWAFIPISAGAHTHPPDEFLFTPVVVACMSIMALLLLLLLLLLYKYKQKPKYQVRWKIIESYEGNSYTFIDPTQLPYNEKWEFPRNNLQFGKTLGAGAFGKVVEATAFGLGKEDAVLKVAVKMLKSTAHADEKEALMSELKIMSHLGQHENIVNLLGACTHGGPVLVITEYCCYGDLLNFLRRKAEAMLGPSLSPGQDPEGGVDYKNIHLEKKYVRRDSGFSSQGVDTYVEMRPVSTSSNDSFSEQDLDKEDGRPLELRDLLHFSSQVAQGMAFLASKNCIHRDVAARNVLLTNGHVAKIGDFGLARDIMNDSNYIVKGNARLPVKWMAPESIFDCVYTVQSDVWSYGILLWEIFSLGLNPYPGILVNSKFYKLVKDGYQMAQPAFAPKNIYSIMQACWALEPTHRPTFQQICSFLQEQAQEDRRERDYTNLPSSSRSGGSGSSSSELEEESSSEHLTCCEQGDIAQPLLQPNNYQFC
T1 sequence (P10721 26-976): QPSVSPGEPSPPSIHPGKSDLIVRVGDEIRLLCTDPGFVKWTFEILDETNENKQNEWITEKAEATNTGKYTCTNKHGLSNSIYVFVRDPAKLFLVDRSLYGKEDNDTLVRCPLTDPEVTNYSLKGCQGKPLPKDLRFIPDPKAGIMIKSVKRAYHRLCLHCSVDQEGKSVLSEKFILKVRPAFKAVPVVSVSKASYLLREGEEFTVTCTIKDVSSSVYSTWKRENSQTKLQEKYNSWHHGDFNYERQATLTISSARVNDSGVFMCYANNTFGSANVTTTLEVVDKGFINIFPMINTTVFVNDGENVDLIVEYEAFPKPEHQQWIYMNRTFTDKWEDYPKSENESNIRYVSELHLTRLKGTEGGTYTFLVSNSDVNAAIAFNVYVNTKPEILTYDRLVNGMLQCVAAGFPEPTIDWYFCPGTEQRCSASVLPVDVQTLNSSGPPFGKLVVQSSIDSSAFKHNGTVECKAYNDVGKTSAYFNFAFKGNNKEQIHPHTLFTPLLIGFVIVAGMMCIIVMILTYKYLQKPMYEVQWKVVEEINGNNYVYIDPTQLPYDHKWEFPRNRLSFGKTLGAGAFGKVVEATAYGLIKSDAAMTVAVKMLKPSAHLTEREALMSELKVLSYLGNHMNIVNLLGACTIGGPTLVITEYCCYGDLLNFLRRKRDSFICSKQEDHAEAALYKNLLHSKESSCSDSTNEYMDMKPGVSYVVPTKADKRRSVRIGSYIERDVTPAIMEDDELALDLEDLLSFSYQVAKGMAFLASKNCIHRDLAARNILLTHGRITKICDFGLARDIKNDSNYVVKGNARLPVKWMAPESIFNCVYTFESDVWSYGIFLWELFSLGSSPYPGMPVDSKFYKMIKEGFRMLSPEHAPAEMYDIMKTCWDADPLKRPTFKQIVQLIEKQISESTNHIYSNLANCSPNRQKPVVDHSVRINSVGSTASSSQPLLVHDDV

Compound: N#Cc1ccc2ncn(Cc3ccc4nc(N[C@@H]5CCCC[C@H]5O)sc4c3)c2c1 [Example 111, 1-((2-(((1R,2R)-2-hydroxycyclohexyl)amino)benzo[d]thiazol-6-yl)methyl)-1H-benzo[d]imidazole-6-carbonitrile]
- Kd (KIT): 500 to 2000 nM
- Kd (PDGFRβ): 500 to 2000 nM
- Kinase specificity S(10) [1]: A (A≤0.01)
- Kd (CSF1R [2]): 5 to 20 nM
- IC50 (CSF1R [3]): 50 to 200 nM

Compound: C=Cc1ccc2c(c1)ncn2Cc1ccc2nc(N[C@@H]3CCC[C@@H](O)[C@H]3O)sc2c1 [Example 232, (1R,2S,3R)-3-((6-((5-vinyl-1H-benzo[d]imidazol-1-yl)methyl)benzo[d]thiazol-2-yl)amino)cyclohexane-1,2-diol]
- Kd (KIT): ≤ 100 nM
- Kd (PDGFRβ): ≤ 50 nM
- Kinase specificity S(10) [1]: A (A≤0.01)
- Kd (CSF1R [2]): ≤ 5 nM
- IC50 (CSF1R [3]): ≤ 50 nM

Compound: N#Cc1ccc2c(c1)ncn2Cc1ccc2nc(N[C@@H]3CCCC[C@H]3O)oc2c1 [Example 170, 1-((2-(((1R,2R)-2-hydroxycyclohexyl)amino)benzo[d]oxazol-6-yl)methyl)-1H-benzo[d]imidazole-5-carbonitrile]
- Kd (KIT): > 2000 nM
- Kd (PDGFRβ): 500 to 2000 nM
- Kinase specificity S(10) [1]: A (A≤0.01)
- Kd (CSF1R [2]): > 50 nM
- IC50 (CSF1R [3]): > 500 nM

Compound: O[C@@H]1CCCC[C@H]1Nc1nc2ccc(Cn3cnc4cc(F)c(F)cc43)cc2s1 [Example 128, (1R,2R)-2-((6-((5,6-difluoro-1H-benzo[d]imidazol-1-yl)methyl)benzo[d]thiazol-2-yl)amino)cyclohexanol]
- Kd (KIT): 100 to 500 nM
- Kd (PDGFRβ): 50 to 500 nM
- Kinase specificity S(10) [1]: B (0.01<B≤0.02)
- Kd (CSF1R [2]): 5 to 20 nM
- IC50 (CSF1R [3]): 200 to 500 nM
